Tests used:
Test in all cases: relative viability (nuclei count vs DMSO), 5 days (fraction); higher = more cells survive
VE-821 + Palbociclib = compound: CS(=O)(=O)c1ccc(-c2cnc(N)c(C(=O)Nc3ccccc3)n2)cc1 [VE-821] + CC(=O)c1c(C)c2cnc(Nc3ccc(N4CCNCC4)cn3)nc2n(C2CCCC2)c1=O [Palbociclib] (partner 0.5 µM)
Summary of the method: (§1)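 For relative viability, nuclei counts in treated wells were divided by those in vehicle wells. Lung cancer cell lines had been pin-tool dosed in 1536-well plates the day after seeding and cultured for 5 days, then fixed and stained in one step (final 0.05% Triton X-100, 1% formaldehyde, 1 ug/ml Hoechst) and imaged at 4×. Doses were one drug alone or a fixed anchor-drug dose plus five library-drug doses (not always all listed) in √10 steps, and values are duplicate-plate medians.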

VE-821 + Bortezomib = compound: CS(=O)(=O)c1ccc(-c2cnc(N)c(C(=O)Nc3ccccc3)n2)cc1 [VE-821] + CC(C)C[C@H](NC(=O)[C@H](Cc1ccccc1)NC(=O)c1cnccn1)B(O)O [Bortezomib] (partner 0.002 µM)
Summary of the method: as §1

Vismodegib + Linsitinib = compound: CS(=O)(=O)c1ccc(C(=O)Nc2ccc(Cl)c(-c3ccccn3)c2)c(Cl)c1 [Vismodegib] + C[C@]1(O)C[C@@H](c2nc(-c3ccc4ccc(-c5ccccc5)nc4c3)c3c(N)nccn32)C1 [Linsitinib] (partner 1 µM)
Summary of the method: as §1

Ruxolitinib + OSI-027 = compound: N#CC[C@H](C1CCCC1)n1cc(-c2ncnc3[nH]ccc23)cn1 [Ruxolitinib] + COc1cccc2cc(-c3nc([C@H]4CC[C@H](C(=O)O)CC4)n4ncnc(N)c34)[nH]c12 [OSI-027] (partner 0.5 µM)
Summary of the method: as §1

Row | Cell Line | relative viability (VE-821 + Palbociclib; first compound 0.08 µM) | relative viability (VE-821 + Palbociclib; first compound 0.253 µM) | relative viability (VE-821 + Palbociclib; first compound 0.8 µM) | relative viability (VE-821 + Palbociclib; first compound 2.53 µM) | relative viability (VE-821 + Palbociclib; first compound 8 µM) | relative viability (VE-821 + Bortezomib; first compound 0.08 µM) | relative viability (VE-821 + Bortezomib; first compound 0.253 µM) | relative viability (VE-821 + Bortezomib; first compound 0.8 µM) | relative viability (VE-821 + Bortezomib; first compound 2.53 µM) | relative viability (VE-821 + Bortezomib; first compound 8 µM) | relative viability (Vismodegib + Linsitinib; first compound 0.08 µM) | relative viability (Vismodegib + Linsitinib; first compound 0.253 µM) | relative viability (Vismodegib + Linsitinib; first compound 0.8 µM) | relative viability (Vismodegib + Linsitinib; first compound 2.53 µM) | relative viability (Vismodegib + Linsitinib; first compound 8 µM) | relative viability (Ruxolitinib + OSI-027; first compound 0.08 µM) | relative viability (Ruxolitinib + OSI-027; first compound 0.253 µM) | relative viability (Ruxolitinib + OSI-027; first compound 0.8 µM) | relative viability (Ruxolitinib + OSI-027; first compound 2.53 µM) | relative viability (Ruxolitinib + OSI-027; first compound 8 µM)
1 | 201T | 0.37 | 0.35 | 0.355 | 0.318 | 0.325 | 1.11 | 1.06 | 1.07 | 1.07 | 1.06 | 0.954 | 1.09 | 1 | 0.978 | 1.01 | 0.768 | 0.722 | 0.809 | 0.919 | 0.905
2 | A549 |  |  |  |  |  |  |  |  |  |  | 0.537 | 0.566 | 0.448 | 0.526 | 0.615 |  |  |  |  | 
3 | A-427 | 0.55 | 0.547 | 0.565 | 0.562 | 0.449 | 0.964 | 0.937 | 0.906 | 0.93 | 0.695 | 1.12 | 1.09 | 1.11 | 1.11 | 1.12 | 0.434 | 0.465 | 0.566 | 0.364 | 0.439
4 | ABC-1 | 0.651 | 0.788 | 0.601 | 0.695 | 0.633 | 0.333 | 0.335 | 0.288 | 0.368 | 0.307 | 0.666 | 0.682 | 0.79 | 0.821 | 0.794 |  | 0.379 | 0.83 | 0.455 | 0.539
5 | BEN | 0.504 | 0.461 | 0.469 | 0.517 | 0.642 | 0.872 | 0.759 | 0.992 | 1.03 | 0.712 | 0.951 | 0.939 | 0.929 | 0.964 | 0.99 | 0.336 | 0.299 | 0.304 | 0.266 | 0.267
6 | CAL-12T | 0.571 | 0.373 | 0.472 | 0.51 | 0.308 | 1.04 | 0.984 | 1.13 | 0.996 | 0.717 | 0.927 | 0.765 | 0.95 | 0.722 | 0.679 | 0.598 | 0.623 | 0.812 | 0.524 | 0.442
7 | COR-L23 | 0.284 | 0.307 | 0.32 | 0.394 | 0.307 | 1.1 | 0.997 | 1.06 | 1 | 1.06 | 0.934 | 0.812 | 0.972 | 0.859 | 1.1 | 0.806 | 0.743 | 0.868 | 0.729 | 0.645
8 | COR-L 105 | 0.432 | 0.339 | 0.443 | 0.409 | 0.399 | 0.746 | 0.841 | 0.677 | 0.738 | 0.467 | 0.781 | 0.978 | 0.965 | 1.01 | 0.849 | 0.535 | 0.536 | 0.705 | 0.667 | 0.531
9 | Calu-6 |  |  |  |  |  | 0.945 | 0.907 | 0.891 | 0.937 | 0.429 | 1 | 0.9 | 0.952 | 0.904 | 1.02 |  |  |  |  | 
10 | ChaGo-K-1 | 0.95 | 0.956 | 0.909 | 0.905 | 0.803 | 1 | 1.01 | 1.24 | 0.989 | 0.812 |  |  |  |  |  | 0.698 | 0.436 | 0.544 | 0.524 | 0.545
11 | EBC-1 |  |  |  |  |  | 0.534 | 0.546 | 0.555 | 0.517 | 0.4 | 0.871 | 0.901 | 0.981 | 0.778 | 0.883 |  |  |  |  | 
12 | EKVX | 0.458 | 0.361 | 0.341 | 0.429 | 0.4 | 1.06 | 1.11 | 1.02 | 1.21 | 0.912 | 0.949 | 1.04 | 0.929 | 0.894 | 0.989 | 0.661 | 0.641 | 0.486 | 0.632 | 0.733
13 | EMC-BAC-2 | 0.531 | 0.491 | 0.528 | 0.545 | 0.524 | 1.12 | 1.08 | 1.15 | 1.11 | 1.04 | 0.785 | 0.803 | 0.914 | 0.776 | 0.82 | 0.391 | 0.344 | 0.358 | 0.359 | 0.224
14 | EPLC-272H | 0.342 | 0.313 | 0.295 | 0.33 | 0.326 | 0.955 | 0.927 | 1.12 | 1.13 | 0.814 | 1.24 | 1.18 | 0.986 | 1.04 | 1.1 | 0.275 | 0.282 | 0.291 | 0.267 | 0.272
15 | H3255 | 0.288 | 0.332 | 0.332 | 0.326 | 0.319 | 0.799 | 0.882 | 0.813 | 0.853 | 0.906 | 0.967 | 0.88 | 1 | 0.959 | 0.897 | 0.371 | 0.492 | 0.624 | 0.591 | 0.585
16 | HARA | 0.227 | 0.29 | 0.239 | 0.279 | 0.299 | 1.4 | 1.07 | 1.22 | 1.23 | 1.05 | 0.844 | 0.944 | 0.76 | 0.967 | 1.04 | 0.727 | 0.372 | 0.601 | 0.416 | 0.481
17 | HCC-15 | 0.822 | 0.767 | 0.809 | 0.907 | 0.748 | 1.22 | 1.02 | 1.02 | 1.13 | 1.1 | 0.896 | 0.876 | 0.834 | 1.01 | 0.897 | 0.569 | 0.494 | 0.751 | 0.522 | 0.541
18 | HCC-44 | 0.956 | 0.981 | 0.992 | 1.08 | 1.07 | 1 | 0.908 | 0.98 | 1.01 | 0.975 | 0.668 | 0.581 | 0.66 | 0.715 | 0.71 | 0.537 | 0.426 | 0.634 | 0.457 | 0.333

— the supplement of paper PMC10307832
